{"source": "paper PMC8458281", "about": "“Computational modeling and experimental validation of the EPI-X4/CXCR4 complex allows rational design of small peptide antagonists” (Communications Biology, 2021)", "key": {"[1]": {"system": "CXCR4 D97S", "experiment": "12G5 antibody competition, 293T cells transfected with CXCR4 D97S", "type": "binding, human", "details": "IC50 on CXCR4 D97S relative to wt", "description": "Fig. 4 The interactions of EPI-X4 and the EPI-X4 derivatives WSC02 and JM#21 with point-mutated CXCR4 were assessed by an antibody competition assay. Amino acid substitutions were introduced in the sequence of CXCR4 by site-directed mutagenesis, cloned into an IRES-eGFP expression vector, and transfected into 293 T cells. Afterward, cells were incubated with serially diluted EPI-X4 (a, b), WSC02 (c, d), or JM#21 (e, f) in presence of a constant concentration of CXCR4 specific antibody (clone 12G5). After 2 h, bound antibody was analyzed by flow cytometry. a, c, e) Representative dose-dependent replacement of 12G5 antibody by peptides. b, d, f) IC50 values were calculated by nonlinear regression. Shown are data derived from at least three individual experiments ± SEM. IC50 values were set to 1000 µM (EPI-X4 and WSC02) or 100 µM (JM#21) if the value exceeds the maximally used concentration. *p ≤ 0.05, ***p ≤ 0.001 (one-way ANOVA for comparison with wt). For IC50 values see Table 1. For all binding curves see also Fig. S8.\nMutated CXCR4 constructs were transfected into 293 T cells that have a very low endogenous expression level of wild-type CXCR4. Transfected cells were then analyzed for CXCR4 surface expression (Fig. S5a) and EPI-X4 binding using a flow cytometry-based antibody competition assay (Fig. S5b, c)[33]. […]"}, "[2]": {"system": "CXCR4 E288D", "experiment": "12G5 antibody competition, 293T cells transfected with CXCR4 E288D", "type": "binding, human", "details": "IC50 on CXCR4 E288D relative to wt", "from_the_text": "The human CXCR4 gene (isoform 1 or b, NCBI Reference Sequence: NP_003458.1, UniProtKB/Swiss-Prot: P61073-1) was amplified by PCR of the pTrip_GFP_CXCR4 vector (kindly provided by Prof. Françoise Bachelerie, Paris, France) by generating the flanking single cutter sites NheI and HindIII. The PCR fragment was ligated in the empty pcDNA3.1(+) vector (Life Technologies GmbH, Darmstadt). Afterward, the IRES-eGFP cassette of the proviral clone pBR_NL4-3_IRES-eGFP[44] was PCR-amplified with EcoRI and NotI single cutter sites and ligated in the multiple cloning site after CXCR4. […]\nTo test for peptide interaction with CXCR4, 50,000 SupT1 cells were seeded in 96-well microtiter plates in PBS supplemented with 1% FCS, the buffer was removed and cells were precooled at 4 °C. […] Afterward, the unbound antibody was removed and cells analyzed by flow cytometry. The mean fluorescence intensity (MFI) was normalized to the PBS control. […] IC50 values were determined by nonlinear regression using GraphPad Prism. […] For analysis, after flow cytometry, eGFP expressing cells were gated and further analyzed. CXCR4 expression levels and antibody binding to CXCR4 was determined using the CXCR4 antibody clones 12G5 (binds to the second ECL loop) (#555976, BD PharmingenTM) and 1D9 (binds to the N-terminus) (#551510, BD PharmingenTM) (Supplement Figure S5). […]"}}}
{"sequence": "IVRWSKKVPCVS [WSC02, first-generation C-terminally truncated 12-mer derivative of EPI-X4 with four substitutions]", "values": [{"measurement": "Fold change", "setting": "[1]", "value": 18}, {"measurement": "Fold change", "setting": "[2]", "value": 74}]}
